Source: ChEMBL document CHEMBL6121005 (Eur J Med Chem, 2025)
Active and inactive are the calls of the source. No cut-off for these calls is given here.

Columns and labels:
Cholinesterase [1] = target: T1, Cholinesterase (Homo sapiens, UniProt P06276); experiment: Inhibition of human serum BuChE using butyrylthiocholine iodide as substrate at 10 uM incubated for 10 mins followed by substrate addition by DTNB reagent based Ellman's method relative to control
[2] = Acute toxicity in male ICR mouse assessed as microscopic heart damage at 100 to 1000 mg/kg, po administered for 14 days by hematoxylin and eosin staining based assay; assay type: organism-based; details: in vivo, 336 h, dose 100-1000 mg/kg, time 14 day
Cholinesterase [3] = target: T1, Cholinesterase; experiment: Inhibition of human serum BuChE using butyrylthiocholine iodide as substrate incubated for 10 mins followed by substrate addition by DTNB reagent based Ellman's method
Mus musculus [4] = experiment: Antialzheimer activity in scopolamine- induced ICR mouse assessed as increase in time spent within target quadrant at 2.5 to 10 mg/kg, po administered daily and measured after 16 to 20 days by Morris water maze test; assay type: functional, organism-based; details: dose 2.5-10 mg/kg, time 16-20 day
Mus musculus [5] = experiment: Antialzheimer activity against amyloid beta (1 to 42)-induced ICR mouse cognitive deficit model assessed as increase in step-through latency time at 5 to 10 mg/kg, po administered daily and measured on day 13 and 14 by step-through passive avoidance test; assay type: functional, organism-based; details: dose 5-10 mg/kg, time 13-14 day
[6] = Acute toxicity in male ICR mouse assessed as microscopic lungs damage at 100 to 1000 mg/kg, po administered for 14 days by hematoxylin and eosin staining based assay; assay type: organism-based; details: in vivo, 336 h, dose 100-1000 mg/kg, time 14 day
Mus musculus [7] = experiment: Antialzheimer activity in scopolamine-induced temporary memory and cognitive impairment ICR mouse model assessed as alternation performance at 2.5 to 5 mg/kg, po administered daily and measured on day 15 by Y-maze test; assay type: functional, organism-based; details: dose 2.5-5 mg/kg, time 15.0 day
[8] = Acute toxicity in male ICR mouse assessed as microscopic spleen damage at 100 to 1000 mg/kg, po administered for 14 days by hematoxylin and eosin staining based assay; assay type: organism-based; details: in vivo, 336 h, dose 100-1000 mg/kg, time 14 day
Mus musculus [9] = experiment: Antialzheimer activity against amyloid beta (1 to 42)-induced ICR mouse memory impairment model assessed as mean escape latency at 2.5 to 10 mg/kg, po administered daily and measured after 15 to 19 days by Morris water maze test; assay type: functional, organism-based; details: dose 2.5-10 mg/kg, time 15-19 day
[10] = Acute toxicity in male ICR mouse assessed as effect on body weight at 100 to 1000 mg/kg, po administered for 14 days; assay type: organism-based; details: in vivo, 336 h, dose 100-1000 mg/kg, time 14 day
PC-12 [11] = experiment: (§1) Neuroprotective activity against H2O2-induced rat PC12 cells assessed as protection against H2O2-induced apoptosis by measuring early apoptotic cells at 50 uM pretreated for 2 hrs followed by H2O2 addition and measured after 24 hrs by Annexin V-FITC/PI staining based flow cytometry analysis (reference value: 0.88 %); assay type: functional; details: time 26 hrs
PC-12 [12] = experiment: as §1, with “necrotic” for “early apoptotic”, “0.99” for “0.88”; assay type: functional; details: time 26 hrs
Mus musculus [13] = experiment: Antialzheimer activity in scopolamine-induced temporary memory and cognitive impairment ICR mouse model assessed as alternation performance at 10 mg/kg, po administered daily and measured on day 15 by Y-maze test; assay type: functional, organism-based; details: time 15.0 day
Mus musculus [14] = experiment: Antialzheimer activity against scopolamine-induced ICR mouse cognitive deficit model assessed as decrease in latency time at 2.5 to 10 mg/kg, po administrated daily and measured on last day of training by Morris water maze test; assay type: functional, organism-based; details: dose 2.5-10 mg/kg
Mus musculus [15] = experiment: Antialzheimer activity against amyloid beta (1 to 42)-induced ICR mouse cognitive deficit model assessed as increase in alternation performance at 5 mg/kg, po administered daily and measured on day 12 by Y-maze test relative to control; assay type: functional; details: time 12 day
[16] = Inhibition of H2O2-induced ROS release in rat PC12 cells assessed as mean fluorescence intensity at 50 uM preincubated for 2 hrs followed by H2O2 addition and measured after 24 hrs by DCFH-DA based flow cytometry analysis (reference value: 23904); assay type: functional, PC-12; details: time 26 hrs
[17] = Acute toxicity in male ICR mouse assessed as microscopic kidneys damage at 100 to 1000 mg/kg, po administered for 14 days by hematoxylin and eosin staining based assay; assay type: organism-based; details: in vivo, 336 h, dose 100-1000 mg/kg, time 14 day
Mus musculus [18] = experiment: Antialzheimer activity against scopolamine-induced ICR mouse cognitive deficit model assessed as latency time at 2.5 to 10 mg/kg, po administrated daily and measured on initial day of training by Morris water maze test; assay type: functional; details: dose 2.5-10 mg/kg
[19] = Acute toxicity in male ICR mouse assessed as microscopic liver damage at 100 to 1000 mg/kg, po administered for 14 days by hematoxylin and eosin staining based assay; assay type: organism-based; details: in vivo, 336 h, dose 100-1000 mg/kg, time 14 day
PC-12 [20] = experiment: Antioxidant activity against H2O2-induced toxicity in rat PC12 cells at 12.5 uM preincubated for 2 hrs and measured after 24 hrs by CCK-8 assay; assay type: functional, cell-based; details: time 26.0 hrs
Mus musculus [21] = experiment: Antialzheimer activity in amyloid beta (1 to 42 residues) induced ICR mouse assessed as increase in time spent within target quadrant at 2.5 to 5 mg/kg, po administered daily and measured after 15 to 19 days by Morris water maze test; assay type: functional, organism-based; details: dose 2.5-5 mg/kg, time 15-19 day
PC-12 [22] = experiment: Cytoprotective against rat PC12 cells assessed as cell viability at 50 uM preincubated for 24 hrs and measured after 4 hrs by CCK-8 assay; assay type: functional, cell-based
PC-12 [23] = experiment: as §1, with “viable” for “early apoptotic”, “90.8” for “0.88”; assay type: functional; details: time 26 hrs
[24] = Acute toxicity in male ICR mouse assessed as microscopic brain damage at 100 to 1000 mg/kg, po administered for 14 days by hematoxylin and eosin staining based assay; assay type: organism-based; details: in vivo, 336 h, dose 100-1000 mg/kg, time 14 day
[25] = Acute toxicity in male ICR mouse assessed as mortality at 100 to 1000 mg/kg, po administered as single dose for 14 days; assay type: organism-based; details: in vivo, 336 h, dose 100-1000 mg/kg, time 14 day
Mus musculus [26] = experiment: Antialzheimer activity against amyloid beta (1 to 42)-induced ICR mouse cognitive deficit model assessed as increase in alternation performance at 10 mg/kg, po administered daily and measured on day 12 by Y-maze test relative to control; assay type: functional; details: time 12 day
Mus musculus [27] = experiment: Antialzheimer activity against scopolamine-induced ICR mouse cognitive deficit model assessed as decrease in movement distance at 2.5 to 10 mg/kg, po administrated daily and measured on last day of training by Morris water maze test; assay type: functional, organism-based; details: dose 2.5-10 mg/kg
Mus musculus [28] = experiment: Antialzheimer activity in scopolamine-induced temporary memory and cognitive impairment ICR mouse model assessed as increase in step-through latency time at 2.5 to 10 mg/kg, po administered daily and measured on day 13 and 14 by step-through passive avoidance test; assay type: functional, organism-based; details: dose 2.5-10 mg/kg, time 13-14 day
Mus musculus [29] = experiment: Antialzheimer activity in scopolamine- induced ICR mouse assessed as increase in distance travelled within target quadrant at 2.5 to 10 mg/kg, po administered daily and measured after 16 to 20 days by Morris water maze test; assay type: functional, organism-based; details: dose 2.5-10 mg/kg, time 16-20 day
Mus musculus [30] = experiment: Antialzheimer activity in scopolamine-induced ICR mouse assessed as increase in trajectory within target quadrant at 2.5 to 10 mg/kg, po administered daily and measured after 16 to 20 days by Morris water maze test; assay type: functional, organism-based; details: dose 2.5-10 mg/kg, time 16-20 day
PC-12 [31] = experiment: as §1, with “late” for “early”, “7.26” for “0.88”; assay type: functional; details: time 26 hrs
Mus musculus [32] = experiment: Antialzheimer activity against amyloid beta (1 to 42)-induced ICR mouse cognitive deficit model assessed as increase in alternation performance at 2.5 mg/kg, po administered daily and measured on day 12 by Y-maze test relative to control; assay type: functional; details: time 12 day
Acetylcholinesterase = Acetylcholinesterase (Homo sapiens, UniProt P22303); experiment: Inhibition of human erythrocytes AChE measured after 10 mins by Ellman's method
Mus musculus [33] = experiment: Antialzheimer activity against amyloid beta (1 to 42)-induced ICR mouse memory impairment model assessed as decrease in movement distance at 2.5 to 10 mg/kg, po administered daily and measured after 15 to 19 days by Morris water maze test; assay type: functional, organism-based; details: dose 2.5-10 mg/kg, time 15-19 day
[34] = Cytotoxicity against rat PC12 cells assessed as cell viability at 50 uM preincubated for 24 hrs and measured after 4 hrs by CCK-8 assay; assay type: toxicity, cell-based, PC-12; details: time 28 hrs, read-out: Activity
Mus musculus [35] = experiment: Antialzheimer activity in amyloid beta (1 to 42 residues) induced ICR mouse assessed as increase in distance travelled within target quadrant at 2.5 to 5 mg/kg, po administered daily and measured after 15 to 19 days by Morris water maze test; assay type: functional, organism-based; details: dose 2.5-5 mg/kg, time 15-19 day
Mus musculus [36] = experiment: Antialzheimer activity in amyloid beta (1 to 42 residues) induced ICR mouse memory impairment model assessed as increase in trajectory after platform removal at 2.5 to 10 mg/kg, po administered daily and measured after 15 to 19 days by Morris water maze test; assay type: functional, organism-based; details: dose 2.5-10 mg/kg, time 15-19 day

T1 sequence (P06276 whole entry): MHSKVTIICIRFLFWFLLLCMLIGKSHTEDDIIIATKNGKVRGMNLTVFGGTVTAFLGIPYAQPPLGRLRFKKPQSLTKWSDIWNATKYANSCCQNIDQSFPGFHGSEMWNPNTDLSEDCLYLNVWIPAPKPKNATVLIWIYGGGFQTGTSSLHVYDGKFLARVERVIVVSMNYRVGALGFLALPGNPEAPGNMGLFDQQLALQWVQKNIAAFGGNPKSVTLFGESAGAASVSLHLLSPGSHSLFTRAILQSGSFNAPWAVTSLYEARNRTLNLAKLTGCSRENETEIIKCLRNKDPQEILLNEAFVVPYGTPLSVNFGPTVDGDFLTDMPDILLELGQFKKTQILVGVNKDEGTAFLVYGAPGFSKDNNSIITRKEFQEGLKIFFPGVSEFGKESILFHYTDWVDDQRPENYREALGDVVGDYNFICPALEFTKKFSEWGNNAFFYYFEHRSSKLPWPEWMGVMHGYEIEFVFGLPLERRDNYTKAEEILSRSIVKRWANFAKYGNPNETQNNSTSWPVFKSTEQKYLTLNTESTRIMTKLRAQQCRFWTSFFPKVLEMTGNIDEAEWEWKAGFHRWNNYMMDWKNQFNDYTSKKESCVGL
Sequence of Acetylcholinesterase (P22303 whole entry): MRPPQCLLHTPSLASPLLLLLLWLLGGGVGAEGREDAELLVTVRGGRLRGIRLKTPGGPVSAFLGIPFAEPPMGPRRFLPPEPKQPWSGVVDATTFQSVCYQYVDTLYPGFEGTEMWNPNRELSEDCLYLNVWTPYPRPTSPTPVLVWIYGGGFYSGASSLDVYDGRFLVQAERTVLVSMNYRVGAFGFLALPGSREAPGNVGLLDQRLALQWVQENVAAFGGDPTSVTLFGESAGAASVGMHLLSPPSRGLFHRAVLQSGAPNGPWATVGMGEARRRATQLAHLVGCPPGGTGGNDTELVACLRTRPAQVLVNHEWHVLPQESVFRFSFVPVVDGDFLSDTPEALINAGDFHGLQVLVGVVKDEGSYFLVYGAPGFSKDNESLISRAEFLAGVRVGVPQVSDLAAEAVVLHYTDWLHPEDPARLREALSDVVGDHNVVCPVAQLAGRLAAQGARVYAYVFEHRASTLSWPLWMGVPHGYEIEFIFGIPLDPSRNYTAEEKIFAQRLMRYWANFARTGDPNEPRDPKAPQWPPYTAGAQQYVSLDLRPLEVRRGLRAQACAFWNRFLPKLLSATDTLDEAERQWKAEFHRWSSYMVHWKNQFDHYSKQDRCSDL

COc1ccc2c3c1O[C@H]1C[C@@H](OCc4ccc(Cc5ccccc5F)cn4)C=C[C@@]31CCN(C)C2
inhibition (Cholinesterase [1]): 96.5%
Activity [2]: Non-toxic
IC50 (Cholinesterase [3]): 358 nM
Activity (Mus musculus [4]): Dose-dependent-effect
Activity (Mus musculus [5]): Active
Activity [6]: Non-toxic
Activity (Mus musculus [7]): Active
Activity [8]: Non-toxic
Activity (Mus musculus [9]): Active
Activity [10]: Non-toxic
Activity (PC-12 [11]): 5.42%
Activity (PC-12 [12]): 1.21%
Activity (Mus musculus [13]): inactive
Activity (Mus musculus [14]): Active
Activity (Mus musculus [15]): 73.56%
Flu intensity [16]: 41314
Activity [17]: Non-toxic
Time (Mus musculus [18]): 60 s
Activity [19]: Non-toxic
Activity (PC-12 [20]): Dose-dependent-effect
Activity (Mus musculus [21]): Active
Activity (PC-12 [22]): Active
Activity (PC-12 [23]): 86%
Activity [24]: Non-toxic
Activity [25]: Non-toxic
Activity (Mus musculus [26]): 76.91%
Activity (Mus musculus [27]): Active
Activity (Mus musculus [28]): Dose-dependent-effect
Activity (Mus musculus [29]): Dose-dependent-effect
Activity (Mus musculus [30]): Active
Activity (PC-12 [31]): 7.35%
Activity (Mus musculus [32]): 72.91%
IC50 (Acetylcholinesterase): 514 nM
Activity (Mus musculus [33]): Active
viability at 4 h, 50 µM [34]: > 90%
Activity (Mus musculus [35]): Active
Activity (Mus musculus [36]): Active
